Assay results: US20250325684A1, “POTENT ANTI-CANCER CYCLOTIDES” (University of Southern California, priority 2022, published 2025)
Where two headings read alike, the source gives them in different places. Numbered stars: 1 amine (or outer) side, 2 acyl side, 3 side chain; on linkers, the order of the positions; unused ones are H or OH. Bridge positions count the residues as written; N and C are the ends. Square brackets hold non-standard residues; d marks the D form. Peptide text beside a SMILES is read from it. I, II: the chains in the order shown. X1 = O=C(CCc1cn(CCOCCOCCOCCC(=O)[*:2])nn1)[*:1]; isoGln = NC(=O)[C@H](CCC(=O)[*:2])N[*:1]

Key:
[1] = system: ES-2; assay: MTT cell viability, ES-2 ovarian cells; type: cell-based, human; settings: p53 Mutant
Method: (§1) Cell viability assay in several human cancer cell lines (See Tables 1 to 10). Cell lines were cultured in RPMI 1640 (or recommended medium when indicated) medium supplemented with 10% fetal calf serum, penicillin (50 IU/mL) and streptomycin ([…]) at 37° C. in 5% CO2. Cell viability studies was carried using the MTT (3-(4,5-dimethylthiazol-2-yl)-2,5-diphenyltetrazolium bromide) assay as previously described (31). Briefly, ≈2×10^3 CRC cells were be seeded in 96-well microtiter plates in 100 μL RPMI 1640 in the presence of 10% calf serum. After 24 h incubation the cells were washed with PBS and treated with 30 μL/well of PBS or RPMI 1640 (or recommended) media containing cyclotides MCo-52, MCoTI-I (used as negative control), nutlin-3a (used as positive control) or MI-77301 (used as positive control for p53-mutated or p53-null cells) at the indicated doses for 1 h at 37° C. in 5% CO2. After 1 h, 210 μL/well of full complemented media was added, the cells were grown for 48 h and then treated with 20 μL of a solution of MTT (5 mg/mL) for 2 h. The medium was discarded and DMSO ([…]) was added to each well and incubated with gentle shaking for 20 min at room temperature. The absorbance at 595 nm of the solution is analyzed using a Tecan Genios Multifunctional Microplate Reader (Tecan System Inc) and the background at 670 nm subtracted. RNA-Seq analysis was performed using state-of-the-art bioinformatics tools. Briefly, raw RNA-Seq reads were mapped to human genome (hg38) using STAR aligner (v2.7.3a). Gencode Release 36 reference was used for annotation. Transcript and gene expression levels were quantified using the IsoEM (37) with default parameters. Counts per million (CPM) method is used for normalization. Differential expression was done using DESeq2 with default parameters. Genes involved in different biological pathways (human) were searched from Geneontology (http://geneontology.org/). Bioinformatics results can be validated by using Partek Flow (v10.0.21.0912), a bioinformatics pipeline developed by Zymo Research (https://www.zymoresearch.com/).
(§2) Tables 1 through 10 show in vitro activity of cyclotide MCo-52-2-cTAT against different human cancer cell lines, some with null-, mutated, or wildtype p53 phenotypes. Cell viability was evaluated using the MTT assay as described above.

[2] = system: BxPC-3; assay: MTT cell viability, BxPC-3 cells; type: cell-based, human; settings: BxPC-3 pancreatic ductal adenocarcinoma, p53 Mutant
Method: as §1, with “After 24 h incubation the cells were washed with PBS and treated with 30 μL/well of PBS or RPMI 1640 (or recommended) media containing cyclotides MCo-52, MCoTI-I (used as negative control), nutlin-3a (used as positive control) or MI-77301 (used as positive control for p53-mutated or p53-null cells) at the indicated doses for 1 h at 37° C. in 5% CO2.” left out
(§3) Cell viability was evaluated using the MTT assay as described above.

[3] = system: DU145; assay: MTT cell viability, DU145 cells; type: cell-based; settings: DU145 prostate carcinoma, p53 Mutant, read-out: Cell viability, Human Prostate Cancer Cells
Method: as §1, §2

[4] = system: MIA PaCa-2; assay: MTT cell viability, MIA PaCa-2 cells; type: cell-based, human; settings: MIA PaCa-2 pancreatic ductal adenocarcinoma, p53 Mutant
Method: as §1, with “After 24 h incubation the cells were washed with PBS and treated with 30 μL/well of PBS or RPMI 1640 (or recommended) media containing cyclotides MCo-52, MCoTI-I (used as negative control), nutlin-3a (used as positive control) or MI-77301 (used as positive control for p53-mutated or p53-null cells) at the indicated doses for 1 h at 37° C. in 5% CO2.” left out
as §3

[5] = system: PANC-1; assay: MTT cell viability, PANC-1 cells; type: cell-based, human; settings: PANC-1 pancreatic ductal adenocarcinoma, p53 Mutant
Method: as §1, with “After 24 h incubation the cells were washed with PBS and treated with 30 μL/well of PBS or RPMI 1640 (or recommended) media containing cyclotides MCo-52, MCoTI-I (used as negative control), nutlin-3a (used as positive control) or MI-77301 (used as positive control for p53-mutated or p53-null cells) at the indicated doses for 1 h at 37° C. in 5% CO2.” left out
as §3

[6] = system: NIHOVCAR3; assay: MTT cell viability, NIHOVCAR3 ovarian cells; type: cell-based, human; settings: p53 Mutant
Method: as §1, §2

[7] = system: SKOV 3; assay: MTT cell viability, SKOV 3 ovarian cells; type: cell-based, human; settings: p53 Mutant
Method: as §1, §2

[8] = system: PC-3; assay: MTT cell viability, PC-3 cells; type: cell-based; settings: PC-3 prostate carcinoma, p53 Mutant, read-out: Cell viability, Human Prostate Cancer Cells
Method: as §1, §2

[9] = system: SW620; assay: MTT cell viability, SW620 cells; type: cell-based, human; settings: SW620 colon adenocarcinoma, p53 Mutant
Method: as §1, with “After 24 h incubation the cells were washed with PBS and treated with 30 μL/well of PBS or RPMI 1640 (or recommended) media containing cyclotides MCo-52, MCoTI-I (used as negative control), nutlin-3a (used as positive control) or MI-77301 (used as positive control for p53-mutated or p53-null cells) at the indicated doses for 1 h at 37° C. in 5% CO2.” left out
as §3

[10] = system: SW626; assay: MTT cell viability, SW626 cells; type: cell-based, human; settings: p53 Mutant
Method: as §1, with “After 24 h incubation the cells were washed with PBS and treated with 30 μL/well of PBS or RPMI 1640 (or recommended) media containing cyclotides MCo-52, MCoTI-I (used as negative control), nutlin-3a (used as positive control) or MI-77301 (used as positive control for p53-mutated or p53-null cells) at the indicated doses for 1 h at 37° C. in 5% CO2.” left out
as §3

[11] = system: HT29; assay: MTT cell viability, HT29 cells; type: cell-based, human; settings: HT29 colon adenocarcinoma, p53 Mutant
Method: as §1, with “After 24 h incubation the cells were washed with PBS and treated with 30 μL/well of PBS or RPMI 1640 (or recommended) media containing cyclotides MCo-52, MCoTI-I (used as negative control), nutlin-3a (used as positive control) or MI-77301 (used as positive control for p53-mutated or p53-null cells) at the indicated doses for 1 h at 37° C. in 5% CO2.” left out
as §3

[12] = system: LNCaP; assay: MTT cell viability, LNCaP cells; type: cell-based; settings: LNCaP prostate carcinoma, p53 WT, read-out: Cell viability, Human Prostate Cancer Cells
Method: as §1, §2

[13] = system: Capan-1; assay: MTT cell viability, Capan-1 cells; type: cell-based, human; settings: Capan-1 pancreatic ductal adenocarcinoma, p53 Mutant
Method: as §1, with “After 24 h incubation the cells were washed with PBS and treated with 30 μL/well of PBS or RPMI 1640 (or recommended) media containing cyclotides MCo-52, MCoTI-I (used as negative control), nutlin-3a (used as positive control) or MI-77301 (used as positive control for p53-mutated or p53-null cells) at the indicated doses for 1 h at 37° C. in 5% CO2.” left out
as §3

[14] = system: LoVo; assay: MTT cell viability, LoVo cells; type: cell-based, human; settings: LoVo colon adenocarcinoma, p53 WT
Method: as §1, with “After 24 h incubation the cells were washed with PBS and treated with 30 μL/well of PBS or RPMI 1640 (or recommended) media containing cyclotides MCo-52, MCoTI-I (used as negative control), nutlin-3a (used as positive control) or MI-77301 (used as positive control for p53-mutated or p53-null cells) at the indicated doses for 1 h at 37° C. in 5% CO2.” left out
as §3

[15] = system: CFPAC-1; assay: MTT cell viability, CFPAC-1 cells; type: cell-based, human; settings: CFPAC-1 pancreatic ductal adenocarcinoma, p53 Mutant
Method: as §1, with “After 24 h incubation the cells were washed with PBS and treated with 30 μL/well of PBS or RPMI 1640 (or recommended) media containing cyclotides MCo-52, MCoTI-I (used as negative control), nutlin-3a (used as positive control) or MI-77301 (used as positive control for p53-mutated or p53-null cells) at the indicated doses for 1 h at 37° C. in 5% CO2.” left out
as §3

[16] = system: SW480; assay: MTT cell viability, SW480 cells; type: cell-based, human; settings: SW480 colon adenocarcinoma, p53 Mutant
Method: as §1, with “After 24 h incubation the cells were washed with PBS and treated with 30 μL/well of PBS or RPMI 1640 (or recommended) media containing cyclotides MCo-52, MCoTI-I (used as negative control), nutlin-3a (used as positive control) or MI-77301 (used as positive control for p53-mutated or p53-null cells) at the indicated doses for 1 h at 37° C. in 5% CO2.” left out
as §3

[17] = system: Caco-2; assay: MTT cell viability, Caco-2 cells; type: cell-based, human; settings: Caco-2 colon adenocarcinoma, p53 Mutant
Method: as §1, with “After 24 h incubation the cells were washed with PBS and treated with 30 μL/well of PBS or RPMI 1640 (or recommended) media containing cyclotides MCo-52, MCoTI-I (used as negative control), nutlin-3a (used as positive control) or MI-77301 (used as positive control for p53-mutated or p53-null cells) at the indicated doses for 1 h at 37° C. in 5% CO2.” left out
as §3

[18] = SW626 colon adenocarcinoma metastatic site: Ovary, MTT (Table 1), read-out: EC50
[19] = SW626 ovarian cells, MTT (Table 7), read-out: Cell Viability Assay

Compound | EC50 [1] [µM] | EC50 [2] [µM] | EC50 [3] [µM] | EC50 [4] [µM] | EC50 [5] [µM] | EC50 [6] [µM] | EC50 [7] [µM] | EC50 [8] [µM] | EC50 [9] [µM] | EC50 [10, 18] [µM] | EC50 [10, 19] [µM] | EC50 [11] [µM] | EC50 [12] [µM] | EC50 [13] [µM] | EC50 [14] [µM] | EC50 [15] [µM] | EC50 [16] [µM] | EC50 [17] [µM]
COc1ccc(C2=N[C@@H](c3ccc(Cl)cc3)[C@@H](c3ccc(Cl)cc3)N2C(=O)N2CCNC(=O)C2)c(OC(C)C)c1 [Nutlin 3A] | 92.3 ± 1.2 | 38.5 ± 5.1 | > 100 | > 50 | 41.9 ± 6.9 | 57.7 ± 0.1 | > 100 | > 100 | > 100 | > 100 | 50.3 ± 0.2 | > 100 | 19.7 ± 1.3 | > 100 | 1.5 ± 0.1 | > 50 | 58.7 ± 7.5 | > 50
N=C(N)NCCC[C@@H]1NC(=O)[C@@H](CCCNC(=N)N)NC(=O)[C@H](CCCCN)NC(=O)[C@@H](N)CCCCNC(=O)CC[C@@H](C(=O)O)NC(=O)[C@@H](CCCNC(=N)N)NC(=O)[C@H](CCCNC(=N)N)NC(=O)[C@@H](CCCCN)NC(=O)[C@H](CCCCN)NC(=O)[C@@H](CCCNC(=N)N)NC(=O)CNC(=O)[C@@H](CCCNC(=N)N)NC1=O [cTAT] (H-KK[dR]R[dR]G[dR]K[dK]R[dR]E-OH; lactam 1-12; N-terminus and C-terminus assumed) | > 100 | > 100 | > 100 | > 100 | > 100 | > 100 | > 100 | > 100 | > 100 | > 100 | > 100 | > 100 | > 100 | > 100 | > 100 | > 100 | > 100 | > 100
I: cyclo(ACICRHDSYCGSGSDGGVCPNLYLLCRRDKDCPG) / II: KK[dR]R[dR]G[dR]K[dK]R[dR][isoGln] (disulfide I:2-I:19, I:4-I:26, I:10-I:32; linker I:30-II:N via X1; lactam II:1-II:C) [Cyclotide 52-2-cTAT] | 6.38 ± 0.1 | 10.6 ± 1 | 37 ± 1.2 | 15.4 ± 1.6 | 20.5 ± 2.5 | 7.8 ± 0.1 | 19.1 ± 0.1 | 23.2 ± 0.6 | 15.3 ± 2 |  | 27.5 ± 0.7 | 9.9 ± 0.9 | 6.3 ± 1.1 | 3.3 ± 0.3 | 10.7 ± 0.9 | 13.4 ± 1.8 | 10.9 ± 1.3 | 11.7 ± 0.8
